Experimental data as given in patent US7772383B2, “Chemical PCR: Compositions for enhancing polynucleotide amplification reactions” (The Trustees of Princeton University, priority 2002, dated 2010).
Where two headings read alike, the source gives them in different places.

How the values were obtained:
[1] = system: bovine brain glycolipid transfer protein (GTP) cDNA (660 bp); test: PCR amplification of GTP cDNA with diol additives, standard cycling; format: biochemical; conditions: for amplification of GTP over annealing temperature gradients (in words): 95° C. denaturing temperature
Description: (§1) Amplification reactions were carried out under the following general conditions. Those skilled in the art will appreciate, however, that to the extent that the conditions (set forth in this application) required for specific experiments described in this example were inconsistent with the following general conditions, limited exceptions to the following general conditions were made The general conditions were as follows: 10 Mm Tris-HCl (Ph 8.8), 50 Mm KCl, 1.5 Mm MgCl2, 0.01% (w/v) gelatin, 0.2 Um primers, 0.06 ng/ul template, 0.2 Mm each Dntp, 0.04 U/ul Taq polymerase. The templates used were bovine brain N-WASP cDNA (1518 bp), a 996 bp segment of human myeloid leukocyte c-jun cDNA, a 511 bp segment of human prostate-specific membrane antigen (PSM) cDNA, and bovine brain glycolipid transfer protein (GTP) cDNA (660 bp). cDNA synthesis was carried out using the FIRST-STRAND® RT-PCR kit from Stratagene on the respective mRNAs purchased from Clontech. All amplification reactions for gene were carried out using a single master batch of cDNA. Taq polymerase and dNTPs were obtained from Stratagene. Primers were obtained from Genosys. Primer melting temperatures (Tms) were calculated using the Genosys oligo calculator program. The sequences of the primers were as follows.
(§2) Polymerase chain reactions for the N-WASP gene were conducted on a ROBOCYCLER® Gradient 40 thermal cycler from Stratagene using 100 ul solutions in 600 ul thin-walled tubes. For expediency, amplification of c-jun, PSM and GTP was carried out in a ROBOCYCLER® Gradient 96 thermal cycler from Stratagene using 50 ul solutions in 200 ul thin-walled tubes. Prior to Taq polymerase addition, a hotstart protocol was carried out that consisted of an initial cycle of 95° C. for 5 minutes (11) to ensure complete first-strand separation, followed by a cycle of 54° C. for 5 minutes. Amplifications were run for 30 cycles. […] Extension was done at 72° C. for periods depending on target length: 2 minutes for N-WASP, 1.5 minutes for c-jun and GTP, and 1 minute for PSM. Annealings were carried out either at fixed concentrations of additives using temperature gradients of 38-56° C. for N-WASP and 44-58° C. for the other targets, or at varying concentrations of additives using fixed temperatures of 41° C. for N-WASP, 50° C. for c-jun and PSM, and 54° C. for GTP.
(§3) Amplification products were analyzed by agarose gel electrophoresis on 0.8% agarose gels in which 20 ul reaction products were loaded with 4 ul loading buffer. Gels were stained with ethidium bromide, visualized on a UV transilluminator (Fisher), and documented by photography. Densitometric quantitation of amplification products was carried out using IMAGE SCANNER® and IMAGE MASTER® software from Amersham Pharmacia. Background correction was done using the software's rolling disc method.
Investigations into the PCR enhancing capabilities of diol cosolvents were carried out using GTP as the primary template. […] The standard protocol for annealing temperature and concentration gradient screening was again followed. […] These cosolvents were thus omitted from further studies. The optimal annealing temperatures for the remaining compounds were: ethylene glycol, 1,2-propanediol, 1,3-propanediol and cis-1,2-cyclopentanediol—58° C.; 1,2-butanediol—54° C.; 1,3-butanediol and 1,4-butanediol—[…]; 2,4-pentanediol, 1,5-pentanediol, 1,6-hexanediol and MPD—56° C.

[2] = system: 1026 by segment of the Thy-1 gene from rat genomic DNA; format: biochemical
[3] = system: 511 bp segment of human prostate-specific membrane antigen (PSM) cDNA; test: PCR amplification of PSM cDNA with diol additives, standard cycling; format: biochemical; conditions: for Specificity / Effective range / Potency: PSM; for Specificity: best specificity (densitometric volume of target as percent of total volume) over the effective range; for Effective range: concentration interval over which densitometric volume of target is at least 50% of maximum; for Potency: normalized maximum densitometric volume of target band: 1,3-Butanediol = 1
Description: as §1, §2, §3
(§4) With PSM, 1,2-propanediol, 1,2-butanediol, 1,3-butanediol, 1,4-butanediol and glycerol were tested; with c-jun, ethylene glycol and 1,3-propanediol were also tested in addition to these compounds. […] The following additive concentrations were tested using these annealing temperatures: 1,2-propanediol—0.5, 0.8, 1.1, 1.4, 1.7 and 2.0M; 1,2-butanediol—0.1, 0.3, 0.5, 0.6, 0.7 and 0.8M; 1,3-butanediol—0.1, 0.3, 0.5, 0.6, 0.9, 1.1, 1.2M; 1,4-butanediol—0.1 to 1.1M in 0.2M intervals; 1,5-pentanediol—0.1-0.6M in 0.1M intervals; glycerol—0.5 to 1.9M in 0.2M intervals, and 2.2M.

[4] = system: 996 bp segment of human myeloid leukocyte c-jun cDNA; test: PCR amplification of c-jun cDNA with diol additives, standard cycling; format: biochemical
Description: as §1, §2, §3, §4

50% GC DNA = test: Predicted cosolvent-induced Tm depression of DNA; format: physicochemical; conditions: 1.0M 1,5-pentanediol, 0.7M 1,6-hexanediol, linearity not verified
Description: The compounds utilized in the first phase (testing using 1.0M 1,5-pentanediol and 0.7M 1,6-hexanediol at temperatures between 46 and 62° C.) were chosen on the basis of the following rationale. The optimal additive for a low temperature PCR reaction is one that lowers the melting temperature of DNA as much as possible while minimally compromising polymerase activity. 1,5-Pentanediol and 1,6-hexanediol are both powerful DNA melting agents. In addition, it was found in the 62° C. activity studies that the rate of activity decline with concentration of 1,5-pentanediol was roughly equivalent to that of 1,2-butanediol, despite the fact that the former is a much stronger DNA denaturant. 1.0M 1,5-pentanediol and 0.7M 1,6-hexanediol are predicted to lower the Tm of a 50% GC DNA by approximately the same amount: 19° C.

Taq polymerase = target: T1, Taq polymerase (Thermus aquaticus, UniProt P19821); test: Taq polymerase activity assays at low temperature in the presence of additives; format: biochemical; conditions: 1.0M 1,5-pentanediol, 0.7M 1,6-hexanediol; for Activity of Taq polymerase: normalized to activity of control at 62° C.; for Activation: change in Taq activity versus control
T1 construct: purchased Stratagene
T1 sequence (P19821 whole entry): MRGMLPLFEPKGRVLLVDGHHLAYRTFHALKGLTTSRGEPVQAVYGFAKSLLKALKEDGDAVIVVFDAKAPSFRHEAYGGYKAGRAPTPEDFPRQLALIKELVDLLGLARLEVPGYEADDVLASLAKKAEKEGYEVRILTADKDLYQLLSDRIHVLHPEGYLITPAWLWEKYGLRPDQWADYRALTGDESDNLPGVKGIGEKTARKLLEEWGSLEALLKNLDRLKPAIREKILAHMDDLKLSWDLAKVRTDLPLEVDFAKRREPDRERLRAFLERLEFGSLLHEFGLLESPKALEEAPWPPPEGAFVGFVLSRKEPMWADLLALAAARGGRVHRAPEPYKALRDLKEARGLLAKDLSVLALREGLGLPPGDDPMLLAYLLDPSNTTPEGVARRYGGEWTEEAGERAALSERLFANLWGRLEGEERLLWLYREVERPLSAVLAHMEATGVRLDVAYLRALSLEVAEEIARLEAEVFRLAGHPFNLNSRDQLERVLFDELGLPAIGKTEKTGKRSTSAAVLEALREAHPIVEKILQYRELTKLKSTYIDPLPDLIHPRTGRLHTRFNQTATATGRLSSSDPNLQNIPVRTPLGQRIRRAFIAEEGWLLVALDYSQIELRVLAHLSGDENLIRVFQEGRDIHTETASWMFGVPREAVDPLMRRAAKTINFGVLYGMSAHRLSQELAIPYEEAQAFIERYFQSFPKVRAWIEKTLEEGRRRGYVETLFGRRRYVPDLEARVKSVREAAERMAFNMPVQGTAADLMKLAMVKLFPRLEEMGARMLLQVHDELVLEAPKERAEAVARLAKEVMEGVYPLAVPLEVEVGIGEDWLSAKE
Description: The measured polymerase activity, then, is in fact a function of two variables—temperature and additive concentration. The plot of measured activity versus temperature and additive concentration is a two-dimensional surface. While a truly comprehensive search for maximal polymerase activity would entail screening this entire surface, the number of experiments required to do so would of course be impractical. Therefore, polymerase activity was measured first as a function of temperature in the absence of additives and at one given, high additive concentration. The temperature that yielded the maximum activity of the polymerase at that concentration was then targeted for concentration gradient studies.
First, polymerase activity assays were carried out in the absence of additives and in the presence of 1.0M 1,5-pentanediol and 0.7M 1,6-hexanediol at temperatures between 46 and 62° C. Next, polymerase activity was studied at 53° C. in the presence of concentration gradients of 1,5-pentanediol, 2-pyrrolidone, sulfolane and tetramethylene sulfoxide. The concentrations tested were: 1,5-pentanediol: 1.0, 1.3, 1.5, 2.25, 3.0 and 3.5M; 2-pyrrolidone: 1.25, 1.5, 2.0 and 3.9M; sulfolane: 1.0, 1.5, 2.0 and 2.75M, tetramethylene sulfoxide: 1.0, 1.5, 2.0 and 3.0M.

[5] = system: GC-rich segment of crab satellite DNA; conditions: literature (Varadaraj and Skinner, 1994); cited from earlier work
[6] = when functional; general statement on prior use; cited from earlier work
[7] = GTP, 95° C. denaturing, 72° C. extension, normalized maximum densitometric volume of target band: 1,5-Pentanediol = 1
[8] = GTP, concentration interval over which densitometric volume of target band is at least 50% of maximum volume
[9] = c-jun, concentration interval over which densitometric volume of target band is at least 50% of maximum volume
[10] = c-jun, normalized maximum densitometric volume of target band: 1,5-Pentanediol = 1

CCCC(O)CO (stereo not drawn) [1,2-Pentanediol]
amplification of GTP over annealing temperature gradients (in words) ([1]; GTP): detectable amplification only in very narrow concentration ranges

O[C@@H]1CCC[C@H]1O (relative stereo) [trans-1,2-Cyclopentanediol]
amplification of GTP over annealing temperature gradients (in words) ([1]; GTP): inhibitory at all concentrations

CC(O)CC(C)O (stereo not drawn) [2,4-Pentanediol]
Potency [1, 7]: 0.61
Effective range [1, 8]: 0.25 to 0.70 M

CC(O)CCO (stereo not drawn) [1,3-Butanediol]
amplification yield of Thy-1 genomic DNA (in words) [2]: particularly dramatic improvement
Specificity [3]: 94%
Effective range [3]: 0.55 to 1.03 M
Potency [3]: 1.00
PSM Potency ([3]; comparative standard 95/50/72° C., 0.8 M, best result under conventional conditions, normalization reference): 1.00
PSM Specificity ([3]; comparative standard 95/50/72° C., 0.8 M, densitometric volume of target band as percent of total volume): 94%
Potency [1, 7]: 0.85
Effective range [1, 8]: 0.29 to 0.96 M
Effective range [4, 9]: 0.40 to 1.12 M
Potency [4, 10]: 0.77

CC(O)CO (stereo not drawn) [1,2-Propanediol]
Specificity [3]: 89%
Effective range [3]: 0.65 to 1.40 M
Potency [3]: 0.75
Potency [1, 7]: 0.64
Effective range [1, 8]: 0.52 to 1.79 M
Effective range [4, 9]: 0.43 to 1.87 M
Potency [4, 10]: 0.60

O[C@@H]1CCC[C@@H]1O [cis-1,2-Cyclopentanediol]
Potency [1, 7]: 0.91
Effective range [1, 8]: 0.13 to 0.35 M

OCCCCCCO [1,6-Hexanediol]
Potency [1, 7]: 0.80
Effective range [1, 8]: 0.13 to 0.29 M
lowering of the Tm of a 50% GC DNA (50% GC DNA): ~19 °C
Activity of Taq polymerase (Taq polymerase; 47° C.): 0.24
Activation (Taq polymerase; 47° C.): −27%
Activity of Taq polymerase (Taq polymerase; 48° C.): 0.36
Activation (Taq polymerase; 48° C.): −12%
Activity of Taq polymerase (Taq polymerase; 49° C.): 0.57
Activation (Taq polymerase; 49° C.): +16%
Activity of Taq polymerase (Taq polymerase; 50° C.): 0.60
Activation (Taq polymerase; 50° C.): +20%
Activity of Taq polymerase (Taq polymerase; 51° C.): 0.60
Activation (Taq polymerase; 51° C.): +13%
Activity of Taq polymerase (Taq polymerase; 52° C.): 0.64
Activation (Taq polymerase; 52° C.): +25%
Activity of Taq polymerase (Taq polymerase; 53° C.): 0.64
Activation (Taq polymerase; 53° C.): +12%
Activity of Taq polymerase (Taq polymerase; 54° C.): 0.60
Activation (Taq polymerase; 54° C.): −2%
Activity of Taq polymerase (Taq polymerase; 55° C.): 0.51
Activation (Taq polymerase; 55° C.): −27%

OCC(O)CO [Glycerol, reference compound]
Specificity [3]: 83%
Effective range [3]: 1.10 to 1.63 M
Potency [3]: 0.22
Potency [1, 7]: 0.28
Effective range [1, 8]: 0.26 to 1.17 M
enhancement of crab satellite DNA amplification relative to that provided by DMSO [5]: less than 25%
concentrations at which a positive effect on PCR is usually found [6]: 5-15%
Effective range [4, 9]: 0.50 to 1.25 M
Potency [4, 10]: 0.13

CC(O)CC(C)(C)O (stereo not drawn) [2-Methyl-2,4-Pentanediol]
Potency [1, 7]: 0.45
Effective range [1, 8]: 0.12 to 0.33 M

OCCO [Ethylene glycol]
amplification yield of Thy-1 genomic DNA (in words) [2]: improve amplification yield
Effective range [1]: 1.55 to 3.55 M
Potency [1]: 0.62
Effective range [4]: 0.71 to 3.10 M
Potency [4]: 0.58

OCCCO [1,3-Propanediol]
Potency [1, 7]: 0.39
Effective range [1, 8]: 0.31 to 1.18 M
Effective range [4, 9]: 0.59 to 0.96 M
Potency [4, 10]: 0.25

CCCCC(O)CO (stereo not drawn) [1,2-Hexanediol]
amplification of GTP over annealing temperature gradients (in words) ([1]; GTP): detectable amplification only in very narrow concentration ranges

OCCCCO [1,4-Butanediol]
Specificity [3]: 92%
Effective range [3]: 0.38 to 0.80 M
Potency [3]: 0.65
Effective range [1]: 0.16 to 0.77 M
Potency [1]: 0.87
Effective range [4]: 0.35 to 0.91 M
Potency [4]: 0.82
